The values below come from patent US7479483B2, “Tumor-targeted drug delivery systems and uses thereof” (G. Gaslini Children's Hospital, priority 2003, dated 2009).

The assay has as its system SH-SY5Y adrenal tumors. The assay can be described thus: In vivo therapeutic studies, orthotopic neuroblastoma xenograft. To be noted: orthotopic SH-SY5Y model; free DXR by standard or metronomic dosing. Further details: species or system SCID mice.

Procedure: Five-week-old female SCID mice were purchased from Harlan Laboratories (Harlan Italy-S. Pietro al Natisone, UD). Mice (6-8 mice/group) were anaesthetised and injected with the different NB cell lines (2.5×10^6 cells in 20 μl of HEPES buffer), after laparatomy, in the capsule of the left adrenal gland. […] Mice were monitored at least two times weekly for evidence of tumor development, tumor size was quantified, and evidence of tumor-associated morbidity was noted.
2.5×10^6 SH-SY5Y cells were injected orthotopically in the left adrenal gland of mice. […] At various time-points, mice were sacrificed and tumors were measured with calipers. Tumor volumes were calculated by the formula π/6 [w1× (w2)^2], where w1 represented the largest tumor diameter and w2 represented the smallest tumor diameter. The body weight and general physical status of the animals were recorded daily and the mice were terminated when tumor reached 1000-1200 mm^3. […] Weight due to tumor burden was calculated by subtracting the normal wet organ weight from each tumor-bearing organ. In some experiments, mice were monitored routinely for weight loss, and survival times were used as the main criterion for determining treatment efficacy.
The statistical significance of differential findings between experimental groups and controls was determined by Student's t-test and considered significant if two-tailed P values were <0.05. […]

`COc1cccc2c1C(=O)c1c(O)c3c(c(O)c1C2=O)C[C@@](O)(C(=O)CO)C[C@@H]3O[C@H]1C[C@H](N)[C@H](O)[C@H](C)O1` [free DXR, doxorubicin]: the therapeutic effect result is “lack of therapeutic effect”.
